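These data come from cells grown in 96-well plates and exposed to compound for 48 hours at five concentrations. GI50: concentration for 50% inhibition of growth.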 Calls of active or inactive are those of the source. No stated cut-off is given here; in the data, active = GI50 up to about 1.1 µM and inactive = higher.
Experiments:
Experiment in all cases: inhibition of tumour cell growth, NCI panel, 48 h
[1] = system: OVCAR-3
[2] = system: SF-539
[3] = system: MDA-MB-435
[4] = system: M14
[5] = system: PC-3
[6] = system: EKVX
[7] = system: HCT-116
[8] = system: HOP-62
[9] = system: T47D
[10] = system: Hs-578T
[11] = system: A549
[12] = system: DU-145
[13] = system: MCF7
[14] = system: MDA-N
[15] = system: NCI/ADR-RES
[16] = system: RXF 393
[17] = system: K562
[18] = system: U-251
[19] = system: SK-MEL-5
[20] = system: NCI-H522
[21] = system: HL-60
[22] = system: SNB-19
[23] = system: SK-MEL-2
[24] = system: HCC 2998
[25] = system: CCRF-CEM
[26] = system: SW-620
[27] = system: ACHN
[28] = system: UACC-62
[29] = system: IGROV-1
[30] = system: BT-549
[31] = system: SK-OV-3
[32] = system: MOLT-4
[33] = system: A498
[34] = system: HCT-15
[35] = system: Malme-3M
[36] = system: CAKI-1
[37] = system: OVCAR-5
[38] = system: NCI-H23
[39] = system: UO-31
[40] = system: OVCAR-8
[41] = system: RPMI-8226
[42] = system: NCI-H226
[43] = system: TK-10
[44] = system: COLO 205
[45] = system: SF-268
[46] = system: HOP-92
[47] = system: NCI-H460
[48] = system: SK-MEL-28
[49] = system: HT-29
[50] = system: UACC-257
[51] = system: KM12
[52] = system: LOX IMVI
[53] = system: SN12C
[54] = system: OVCAR-4
[55] = system: MDA-MB-231
[56] = system: 786-0
[57] = system: SR
[58] = system: SF-295
[59] = system: SNB-75

With `c1ccc(C2=NN=C3C(c4ccccc4)=Nc4ccccc4N3C2)cc1` the GI50 [1] was 3.37 µM (inactive), the GI50 [2] was 39.5 µM (inactive) and the GI50 [3] was 17.7 µM (inactive). For the same molecule, the GI50 [4] was 13.7 µM (inactive), the GI50 [5] was 21.5 µM (inactive) and the GI50 [6] was 23.6 µM (inactive). The GI50 [7] was 10.8 µM (inactive), the GI50 [8] was 27 µM (inactive) and the GI50 [9] was 36.7 µM (inactive). The GI50 [10] was 26.6 µM (inactive), the GI50 [11] was 30.6 µM (inactive) and the GI50 [12] was 7.94 µM (inactive). For the same molecule, the GI50 [13] was 20 µM (inactive), the GI50 [14] was 31.3 µM (inactive) and the GI50 [15] was 14.7 µM (inactive). The GI50 [16] was 10.1 µM (inactive), the GI50 [17] was 13.9 µM (inactive) and the GI50 [18] was 14.3 µM (inactive). The GI50 [19] was 14.1 µM (inactive), the GI50 [20] was 3.84 µM (inactive) and the GI50 [21] was 3.56 µM (inactive). For the same molecule, the GI50 [22] was 24.2 µM (inactive), the GI50 [23] was 23.5 µM (inactive) and the GI50 [24] was 22.4 µM (inactive). For the same molecule, the GI50 [25] was 1.69 µM (inactive), the GI50 [26] was 10.5 µM (inactive) and the GI50 [27] was 34.4 µM (inactive). For the same molecule, the GI50 [28] was 30.3 µM (inactive), the GI50 [29] was 26.5 µM (inactive) and the GI50 [30] was 32.4 µM (inactive). For the same molecule, the GI50 [31] was 53.1 µM (inactive), the GI50 [32] was 3.87 µM (inactive) and the GI50 [33] was > 80.2 µM (inactive). For the same molecule, the GI50 [34] was 11.6 µM, the GI50 [35] was 26 µM (inactive) and the GI50 [36] was 43.7 µM (inactive). For the same molecule, the GI50 [37] was 32.2 µM (inactive), the GI50 [38] was 47.3 µM (inactive) and the GI50 [39] was 7.43 µM (inactive). For the same molecule, the GI50 [40] was 10 µM (inactive), the GI50 [41] was 9.42 µM (inactive) and the GI50 [42] was 14.9 µM (inactive). The GI50 [43] was 5.08 µM (inactive), the GI50 [44] was 20.5 µM (inactive) and the GI50 [45] was 9.48 µM (inactive). The GI50 [46] was 29.3 µM (inactive), the GI50 [47] was 5.07 µM (inactive) and the GI50 [48] was 34.7 µM (inactive). The GI50 [49] was 23.3 µM (inactive), the GI50 [50] was 7.55 µM (inactive) and the GI50 [51] was 29 µM (inactive). For the same molecule, the GI50 [52] was 10 µM (inactive), the GI50 [53] was 29.9 µM (inactive) and the GI50 [54] was 4.58 µM (inactive). The GI50 [55] was 38.9 µM (inactive) and the GI50 [56] was 11.9 µM (inactive).
In the case of `C[C@@H]1CC[C@H]2[C@H]1[C@H]1[C@@H](CC[C@]2(C)N=C=S)C1(C)C`, the GI50 [1] was 19.3 µM (inactive), the GI50 [3] was 24.8 µM (inactive) and the GI50 [4] was 18.5 µM (inactive). The GI50 [5] was 26.7 µM (inactive), the GI50 [57] was 22.1 µM (inactive) and the GI50 [7] was 17.9 µM (inactive). The GI50 [8] was 31.8 µM (inactive), the GI50 [9] was 45.5 µM (inactive) and the GI50 [10] was 48.1 µM (inactive). The GI50 [12] was 23.4 µM (inactive), the GI50 [13] was 17.5 µM (inactive) and the GI50 [14] was 1.96 µM (inactive). For the same molecule, the GI50 [15] was 21.7 µM (inactive), the GI50 [16] was 15.5 µM (inactive) and the GI50 [17] was 16.2 µM (inactive). The GI50 [18] was 16.7 µM (inactive), the GI50 [58] was 21.4 µM (inactive) and the GI50 [19] was 17.5 µM (inactive). The GI50 [21] was 19.1 µM (inactive), the GI50 [22] was > 10 µM (inactive) and the GI50 [23] was 22.8 µM (inactive). The GI50 [24] was 16.1 µM (inactive), the GI50 [25] was 13.3 µM (inactive) and the GI50 [26] was 15.1 µM (inactive). For the same molecule, the GI50 [28] was 21.8 µM (inactive), the GI50 [29] was 45 µM (inactive) and the GI50 [30] was 18.7 µM (inactive). The GI50 [31] was 49.3 µM (inactive), the GI50 [32] was 13.8 µM (inactive) and the GI50 [34] was 27.8 µM. For the same molecule, the GI50 [35] was 22.5 µM (inactive), the GI50 [36] was 37.8 µM (inactive) and the GI50 [37] was 28.3 µM (inactive). The GI50 [59] was 50.5 µM (inactive), the GI50 [38] was 29.5 µM (inactive) and the GI50 [39] was 32.1 µM (inactive). The GI50 [40] was 41.7 µM (inactive), the GI50 [41] was 17.2 µM (inactive) and the GI50 [42] was 17.7 µM (inactive). The GI50 [43] was 41.3 µM (inactive), the GI50 [44] was 18.5 µM (inactive) and the GI50 [46] was 30.7 µM (inactive). The GI50 [47] was 20.4 µM (inactive), the GI50 [48] was 21.1 µM (inactive) and the GI50 [49] was 19.9 µM (inactive). For the same molecule, the GI50 [50] was 25.8 µM (inactive), the GI50 [51] was 17 µM (inactive) and the GI50 [52] was 59.4 µM (inactive). The GI50 [53] was 19.6 µM (inactive), the GI50 [54] was 44.9 µM (inactive) and the GI50 [55] was 30.1 µM (inactive).
With `COC(=O)/N=[N+](\[O-])C(c1ccc(OC)cc1)C1CCCCC1` (stereo not given) the GI50 [1] was 6.15 µM (inactive), the GI50 [2] was 12.3 µM (inactive) and the GI50 [3] was 5.01 µM (inactive). For the same molecule, the GI50 [4] was 2.99 µM (inactive), the GI50 [5] was 1.69 µM (inactive) and the GI50 [6] was 0.991 µM (active). For the same molecule, the GI50 [7] was 0.652 µM (active), the GI50 [8] was 4.84 µM (inactive) and the GI50 [9] was 0.303 µM (active). The GI50 [10] was 6.3 µM (inactive), the GI50 [11] was 5.07 µM (inactive) and the GI50 [12] was 1.86 µM (inactive). For the same molecule, the GI50 [13] was 7.35 µM (inactive), the GI50 [14] was 2.03 µM (inactive) and the GI50 [15] was 2.11 µM (inactive). The GI50 [16] was 9.18 µM (inactive), the GI50 [17] was 2.67 µM (inactive) and the GI50 [18] was 1.03 µM (active). The GI50 [58] was 1.82 µM (inactive), the GI50 [19] was 2.08 µM (inactive) and the GI50 [20] was 1.03 µM (active). The GI50 [21] was 0.787 µM (active), the GI50 [22] was 9.53 µM (inactive) and the GI50 [23] was 13.3 µM (inactive). For the same molecule, the GI50 [24] was 2.12 µM (inactive), the GI50 [25] was 2.2 µM (inactive) and the GI50 [26] was 3.4 µM (inactive). The GI50 [27] was 2.56 µM (inactive), the GI50 [28] was 6.03 µM (inactive) and the GI50 [29] was 4.18 µM (inactive). The GI50 [30] was 8.39 µM (inactive), the GI50 [31] was 3.67 µM (inactive) and the GI50 [32] was 2.87 µM (inactive). The GI50 [33] was 6.67 µM (inactive), the GI50 [34] was 1.26 µM and the GI50 [35] was 2.02 µM (inactive). For the same molecule, the GI50 [36] was 2.12 µM (inactive), the GI50 [37] was 2.58 µM (inactive) and the GI50 [59] was 5.22 µM (inactive). The GI50 [38] was 0.664 µM (active), the GI50 [39] was 5.82 µM (inactive) and the GI50 [40] was 4.75 µM (inactive). The GI50 [41] was 0.948 µM (active), the GI50 [42] was 5.16 µM (inactive) and the GI50 [43] was 3.58 µM (inactive). The GI50 [44] was 0.611 µM (active), the GI50 [45] was 4.23 µM (inactive) and the GI50 [46] was 5.85 µM (inactive). The GI50 [47] was 1.39 µM (inactive), the GI50 [48] was 13.6 µM (inactive) and the GI50 [49] was 1.29 µM (inactive). The GI50 [50] was 1.47 µM (inactive), the GI50 [51] was 2.39 µM (inactive) and the GI50 [52] was 3.33 µM (inactive). For the same molecule, the GI50 [53] was 1.8 µM (inactive), the GI50 [54] was 0.802 µM (active) and the GI50 [55] was 3 µM (inactive). The GI50 [56] was 3.82 µM (inactive).

— ChEMBL document CHEMBL1201862, “PubChem BioAssay data set” (2004)
